Data taken from ChEMBL document CHEMBL2202978, “Synthesis and antiviral activity of novel HCV NS3 protease inhibitors with P4 capping groups” (Bioorg Med Chem Lett, 2012).

Tests used:
[1] = tested on: Hepatitis C virus; assay: Antiviral activity against HCV subtype 1b expressing NS3/4A D168V mutant protease infected in ET cells after 72 hrs; format: functional, organism-based, Hepacivirus hominis; details: genotype 1b
[2] = tested on: Hepatitis C virus; assay: Antiviral activity against HCV subtype 1b expressing NS3/4A A156V mutant protease infected in ET cells after 72 hrs; format: functional, organism-based, Hepacivirus hominis; details: genotype 1b
[3] = tested on: Hepatitis C virus; assay: Antiviral activity against HCV subtype 1b expressing NS3/4A A156T mutant protease infected in ET cells after 72 hrs; format: functional, organism-based, Hepacivirus hominis; details: genotype 1b
[4] = Inhibition of HCV subtype 1a NS3/4A protease (Ac-DE-Dap(QXL520)-EE-Abu-psi-[COO]-ASC(5-FAMsp)-NH2 as substrate by FRET analysis; design: species or system Hepatitis C virus subtype 1a
[5] = tested on: Hepatitis C virus; assay: Antiviral activity against HCV subtype 1b expressing NS3/4A D168A mutant protease infected in ET cells after 72 hrs; format: functional, organism-based, Hepacivirus hominis; details: genotype 1b
[6] = tested on: Hepatitis C virus; assay: Antiviral activity against HCV subtype 1b expressing wild type NS3/4A protease infected in ET cells after 72 hrs; format: functional, organism-based, Hepacivirus hominis; details: genotype 1b
[7] = tested on: Hepatitis C virus; assay: Antiviral activity against HCV subtype 1b expressing NS3/4A A156S mutant protease infected in ET cells after 72 hrs; format: functional, organism-based, Hepacivirus hominis; details: genotype 1b
[8] = tested on: Hepatitis C virus; assay: Antiviral activity against HCV subtype 1a infected in human hepatoma cells; format: functional, organism-based, Hepacivirus hominis
[9] = tested on: Hepatitis C virus; assay: Antiviral activity against HCV subtype 1b infected in human hepatoma cells; format: functional, organism-based, Hepacivirus hominis; details: genotype 1b
[10] = tested on: Hepatitis C virus; assay: Antiviral activity against HCV subtype 1b expressing NS3/4A R115K mutant protease infected in ET cells after 72 hrs; format: functional, organism-based, Hepacivirus hominis; details: genotype 1b
[11] = AUC in Sprague-Dawley rat at 1.23 mg/kg, iv; format: ADME, organism-based; design: dose 1.23 mg/kg, route intravenous; details: plasma
[12] = Drug absorption in Sprague-Dawley rat portal vein at 6.15 mg/kg, po; format: ADME, organism-based; design: dose 6.15 mg/kg, route oral; details: read-out: Drug absorption
[13] = Clearance in Sprague-Dawley rat at 1.23 mg/kg, iv; format: ADME, organism-based; design: dose 1.23 mg/kg, route intravenous; details: in vivo
[14] = AUC (0 to infinity) in Sprague-Dawley rat at 6.15 mg/kg, po; format: ADME, organism-based; design: time infinity, dose 6.15 mg/kg, route oral; details: plasma
[15] = Terminal half life in Sprague-Dawley rat at 6.15 mg/kg, po and 1.23 mg/kg, iv; format: ADME, organism-based; details: in vivo, read-out: beta t1/2 (converted)
[16] = Oral bioavailability in Sprague-Dawley rat at 6.15 mg/kg; format: ADME, organism-based; details: in vivo
[17] = Drug absorption in Sprague-Dawley rat portal vein at 5 mg/kg, po; format: ADME, organism-based; design: dose 5 mg/kg, route oral; details: read-out: Drug absorption
[18] = Oral bioavailability in Sprague-Dawley rat at 5 mg/kg; format: ADME, organism-based; details: in vivo
[19] = Clearance in Sprague-Dawley rat at 1 mg/kg, iv; format: ADME, organism-based; design: dose 1 mg/kg, route intravenous; details: in vivo
[20] = Terminal half life in Sprague-Dawley rat at 5 mg/kg, po and 1 mg/kg, iv; format: ADME, organism-based; details: in vivo, read-out: beta t1/2 (converted)
[21] = AUC (0 to infinity) in Sprague-Dawley rat at 5 mg/kg, po; format: ADME, organism-based; design: time infinity, dose 5 mg/kg, route oral; details: plasma
[22] = AUC in Sprague-Dawley rat at 1 mg/kg, iv; format: ADME, organism-based; design: dose 1 mg/kg, route intravenous; details: plasma

| Compound | EC50 [1] [nM] | EC50 [2] [nM] | EC50 [3] [nM] | IC50 [4] [nM] | EC50 [5] [nM] | EC50 [6] [nM] | EC50 [7] [nM] | EC50 [8] [nM] | EC50 [9] [nM] | EC50 [10] [nM] | other results |
| --- | --- | --- | --- | --- | --- | --- | --- | --- | --- | --- | --- |
| COc1ccc2c(O[C@@H]3C[C@H]4C(=O)N[C@]5(C(=O)NS(=O)(=O)C6CC6)C[C@H]5/C=C\CCCCC[C@H](N/C(=N\C#N)NC(C)(C)C)C(=O)N4C3)cc(-c3nc(C4CC4)cs3)nc2c1C | 832 | 78 | 27 | 2.5 | 331 | 0.3 | 0.5 | 2.5 | 0.7 | 123 | – |
| COc1ccc2c(O[C@@H]3C[C@H]4C(=O)N[C@]5(C(=O)NS(=O)(=O)C6CC6)C[C@H]5/C=C\CCCCC[C@H](NC(=O)C5(OC)CCCC5)C(=O)N4C3)cc(-c3nc(C4CC4)cs3)nc2c1C | 234 | 49 | 13 | 4 | 50 | 0.05 | 0.09 | 0.3 | 0.3 | 25 | – |
| COc1ccc2c(O[C@@H]3C[C@H]4C(=O)N[C@]5(C(=O)NS(=O)(=O)C6CC6)C[C@H]5/C=C\CCCCC[C@H](N5CCOC5=O)C(=O)N4C3)cc(-c3nc(C4CC4)cs3)nc2c1C | 3020 | 151 | 107 | 2.5 | 1820 | 27 | 3.5 | 17 | 14 | 977 | – |
| COc1ccc2c(O[C@@H]3C[C@H]4C(=O)N[C@]5(C(=O)NS(=O)(=O)C6CC6)C[C@H]5/C=C\CCCCC[C@H](N5CCCC5=O)C(=O)N4C3)cc(-c3nc(C4CC4)cs3)nc2c1C | 3980 | 646 | 219 | 20 | 1350 | 8.7 | 6.2 | 42 | 24 | 794 | – |
| COc1ccc2c(O[C@@H]3C[C@H]4C(=O)N[C@]5(C(=O)NS(=O)(=O)C6CC6)C[C@H]5/C=C\CCCCC[C@H](NC(=O)C(C)=O)C(=O)N4C3)cc(-c3nc(C4CC4)cs3)nc2c1C | – | – | – | 0.8 | – | – | – | 0.5 | 0.6 | – | – |
| CCOC(=O)C(=O)N[C@H]1CCCCC/C=C\[C@@H]2C[C@@]2(C(=O)NS(=O)(=O)C2CC2)NC(=O)[C@@H]2C[C@@H](Oc3cc(-c4nc(C5CC5)cs4)nc4c(C)c(OC)ccc34)CN2C1=O | – | – | – | 1 | – | – | – | 2.6 | 1.2 | – | – |
| COc1ccc2c(O[C@@H]3C[C@H]4C(=O)N[C@]5(C(=O)NS(=O)(=O)C6CC6)C[C@H]5/C=C\CCCCC[C@H](NC(=O)C(=O)NC(C)(C)C)C(=O)N4C3)cc(-c3nc(C4CC4)cs3)nc2c1C | – | – | – | 4 | – | – | – | 0.6 | 0.7 | – | – |
| COc1ccc2c(O[C@@H]3C[C@H]4C(=O)N[C@]5(C(=O)NS(=O)(=O)C6CC6)C[C@H]5/C=C\CCCCC[C@H](NC(=O)C(=O)NC5CCCCC5)C(=O)N4C3)cc(-c3nc(C4CC4)cs3)nc2c1C | – | – | – | 6.3 | – | – | – | 0.5 | 0.5 | – | – |
| COc1ccc2c(O[C@@H]3C[C@H]4C(=O)N[C@]5(C(=O)NS(=O)(=O)C6CC6)C[C@H]5/C=C\CCCCC[C@H](NC(=O)C(=O)N5CCCC5)C(=O)N4C3)cc(-c3nc(C4CC4)cs3)nc2c1C | – | – | – | 1.3 | – | – | – | 0.4 | 0.4 | – | – |
| COc1ccc2c(O[C@@H]3C[C@H]4C(=O)N[C@]5(C(=O)NS(=O)(=O)C6CC6)C[C@H]5/C=C\CCCCC[C@H](NC(=O)C(=O)N5CCCCC5)C(=O)N4C3)cc(-c3nc(C4CC4)cs3)nc2c1C | 151 | 6.2 | 5.5 | 1 | 49 | 0.02 | 0.1 | 0.5 | 0.4 | 14 | – |
| COc1ccc2c(O[C@@H]3C[C@H]4C(=O)N[C@]5(C(=O)NS(=O)(=O)C6CC6)C[C@H]5/C=C\CCCCC[C@H](NC(=O)OC(C)(C)C)C(=O)N4C3)cc(-c3nc(C4CC4)cs3)nc2c1C | – | 1.5 | 1.9 | 6.3 | – | 0.02 | 0.08 | 0.4 | 0.4 | 6 | AUC [11]: 381 ng·h/mL; Fa [12]: 14.5%; clearance [13]: 45.6 mL/min/kg; AUC(0-inf) [14]: 201 ng·h/mL; half-life [15]: 1.63 h; bioavailability [16]: 10% |
| COc1ccc2c(O[C@@H]3C[C@H]4C(=O)N[C@]5(C(=O)NS(=O)(=O)C6CC6)C[C@H]5/C=C\CCCCC[C@H](N)C(=O)N4C3)cc(-c3nc(C4CC4)cs3)nc2c1C | 1660 | 41 | 20 | 1.3 | 229 | 1 | 1.2 | 0.7 | 1 | 155 | – |
| COc1ccc2c(O[C@@H]3C[C@H]4C(=O)N[C@]5(C(=O)NS(=O)(=O)C6CC6)C[C@H]5/C=C\CCCCC[C@H](NC(=O)N(C)C)C(=O)N4C3)cc(-c3nc(C4CC4)cs3)nc2c1C | 27 | 2 | 0.5 | 0.5 | 14 | 0.03 | 0.05 | 0.3 | 0.2 | 0.5 | – |
| CCN(CC)C(=O)N[C@H]1CCCCC/C=C\[C@@H]2C[C@@]2(C(=O)NS(=O)(=O)C2CC2)NC(=O)[C@@H]2C[C@@H](Oc3cc(-c4nc(C5CC5)cs4)nc4c(C)c(OC)ccc34)CN2C1=O | 51 | 5.5 | 1 | 0.6 | 19 | 0.03 | 0.1 | 0.3 | 0.2 | 4 | Fa [17]: 19%; bioavailability [18]: 7.4%; clearance [19]: 152 mL/min/kg; half-life [20]: 1.4 h; AUC(0-inf) [21]: 48.7 ng·h/mL; AUC [22]: 127 ng·h/mL |
| COc1ccc2c(O[C@@H]3C[C@H]4C(=O)N[C@]5(C(=O)NS(=O)(=O)C6CC6)C[C@H]5/C=C\CCCCC[C@H](NC(=O)C5(OC)CC5)C(=O)N4C3)cc(-c3nc(C4CC4)cs3)nc2c1C | – | – | – | 1.6 | – | – | – | 0.2 | 0.2 | – | – |
| COc1ccc2c(O[C@@H]3C[C@H]4C(=O)N[C@]5(C(=O)NS(=O)(=O)C6CC6)C[C@H]5/C=C\CCCCC[C@H](NC(=O)C5(OC)CCC5)C(=O)N4C3)cc(-c3nc(C4CC4)cs3)nc2c1C | 263 | 85 | 20 | 2 | 91 | 0.04 | 0.3 | 0.2 | 0.1 | 44 | Fa [17]: 16.5%; bioavailability [18]: 8.2%; clearance [19]: 144 mL/min/kg; half-life [20]: 0.99 h; AUC(0-inf) [21]: 49.1 ng·h/mL; AUC [22]: 117 ng·h/mL |
| CC(C)(C)OC(=O)N[C@H]1CCCCC/C=C\[C@@H]2C[C@@]2(C(=O)NS(=O)(=O)C2CC2)NC(=O)[C@@H]2C[C@@H](OC(=O)N3Cc4cccc(F)c4C3)CN2C1=O [DANOPREVIR] | 26 | 8 | 10 | 0.7 | 39 | 0.2 | 2 | – | – | 82 | – |
| COc1ccc2c(O[C@@H]3C[C@H]4C(=O)N[C@]5(C(=O)NS(=O)(=O)C6CC6)C[C@H]5/C=C\CCCCN(C)C(=O)[C@@H]4C3)cc(-c3nc(C(C)C)cs3)nc2c1C [SIMEPREVIR] | 140 | 344 | 86 | 10 | 149 | 1 | 0.3 | 2 | 1 | 56 | – |
| CCC[C@H](NC(=O)[C@@H]1[C@H]2CCC[C@H]2CN1C(=O)[C@@H](NC(=O)[C@@H](NC(=O)c1cnccn1)C1CCCCC1)C(C)(C)C)C(=O)C(=O)NC1CC1 [TELAPREVIR] | 207 | 1960 | 1140 | 500 | 638 | 34 | 883 | – | – | 1780 | – |
